Laboratory results: the supplement of paper PMC10307832

Experiments:
Test in all cases: relative viability (nuclei count vs DMSO), 5 days (fraction); higher = more cells survive
JZL-184 + Luminespib = compound: C1CN(CCC1C(C2=CC3=C(C=C2)OCO3)(C4=CC5=C(C=C4)OCO5)O)C(=O)OC6=CC=C(C=C6)[N+](=O)[O-] [JZL-184] + CCNC(=O)c1noc(-c2cc(C(C)C)c(O)cc2O)c1-c1ccc(CN2CCOCC2)cc1 [Luminespib] (partner 0.01 µM)
Outline: (§1)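 Five library-drug doses in √10 steps were combined with a fixed anchor-drug dose, or a single drug was given alone, by pin tool to lung cancer cell lines in 1536-well plates the day after seeding. Nuclei were stained and counted after 5 days. Relative viability is the nuclei count in treated wells over that in vehicle wells, taken as the median of duplicate plates.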

JZL-184 + Alpelisib = compound: C1CN(CCC1C(C2=CC3=C(C=C2)OCO3)(C4=CC5=C(C=C4)OCO5)O)C(=O)OC6=CC=C(C=C6)[N+](=O)[O-] [JZL-184] + Cc1nc(NC(=O)N2CCC[C@H]2C(N)=O)sc1-c1ccnc(C(C)(C)C(F)(F)F)c1 [Alpelisib] (partner 2 µM)
Outline: as §1

JZL-184 + OSI-027 = compound: C1CN(CCC1C(C2=CC3=C(C=C2)OCO3)(C4=CC5=C(C=C4)OCO5)O)C(=O)OC6=CC=C(C=C6)[N+](=O)[O-] [JZL-184] + COc1cccc2cc(-c3nc([C@H]4CC[C@H](C(=O)O)CC4)n4ncnc(N)c34)[nH]c12 [OSI-027] (partner 0.5 µM)
Outline: as §1

JZL-184 + Decitabine = compound: C1CN(CCC1C(C2=CC3=C(C=C2)OCO3)(C4=CC5=C(C=C4)OCO5)O)C(=O)OC6=CC=C(C=C6)[N+](=O)[O-] [JZL-184] + Nc1ncn([C@H]2C[C@H](O)[C@@H](CO)O2)c(=O)n1 [Decitabine] (partner 2 µM)
Outline: as §1

JZL-184 + Foretinib = compound: C1CN(CCC1C(C2=CC3=C(C=C2)OCO3)(C4=CC5=C(C=C4)OCO5)O)C(=O)OC6=CC=C(C=C6)[N+](=O)[O-] [JZL-184] + COc1cc2c(Oc3ccc(NC(=O)C4(C(=O)Nc5ccc(F)cc5)CC4)cc3F)ccnc2cc1OCCCN1CCOCC1 [Foretinib] (partner 0.25 µM)
Outline: as §1

Cell Line	relative viability (JZL-184 + Luminespib; first compound 0.04 µM)	relative viability (JZL-184 + Luminespib; first compound 0.4 µM)	relative viability (JZL-184 + Luminespib; first compound 1.265 µM)	relative viability (JZL-184 + Luminespib; first compound 4 µM)	relative viability (JZL-184 + Alpelisib; first compound 0.04 µM)	relative viability (JZL-184 + Alpelisib; first compound 0.4 µM)	relative viability (JZL-184 + Alpelisib; first compound 1.265 µM)	relative viability (JZL-184 + Alpelisib; first compound 4 µM)	relative viability (JZL-184 + OSI-027; first compound 0.04 µM)	relative viability (JZL-184 + OSI-027; first compound 0.4 µM)	relative viability (JZL-184 + OSI-027; first compound 1.265 µM)	relative viability (JZL-184 + OSI-027; first compound 4 µM)	relative viability (JZL-184 + Decitabine; first compound 0.04 µM)	relative viability (JZL-184 + Decitabine; first compound 0.4 µM)	relative viability (JZL-184 + Decitabine; first compound 1.265 µM)	relative viability (JZL-184 + Decitabine; first compound 4 µM)	relative viability (JZL-184 + Foretinib; first compound 0.04 µM)	relative viability (JZL-184 + Foretinib; first compound 0.4 µM)	relative viability (JZL-184 + Foretinib; first compound 1.265 µM)	relative viability (JZL-184 + Foretinib; first compound 4 µM)
NCI-H647	0.286	0.128	0.0998	0.216	1.15	0.957	1.07	1.2	0.625	0.698	0.75	0.51	0.455	0.302	0.353	0.426	1.19	1.2	1.27	1.24
SW 1573	0.224	0.276	0.251	0.222	0.873	0.605	0.894	0.75	0.733	0.548	0.591	0.525	0.818	0.449	0.484	0.463	1.06	0.791	0.94	0.829
HCC-15	0.421	0.294	0.343	0.339	0.933	0.899	0.877	0.931	0.727	0.635	0.742	0.677	0.625	0.692	0.647	0.575	1.25	1.01	1.11	1.03
NCI-H2126	1.06	0.876	0.922	0.92	0.721	0.738	0.802	0.717	0.636	0.64	0.804	0.683	0.597	0.608	0.558	0.555	1.15	1.09	1.14	1.12
NCI-H2085	0.327	0.454	0.46	0.443	0.946	0.904	0.905	0.811	0.444	0.592	0.795	0.649		0.538	0.521	0.627	0.954	0.827	1.12	0.96
BEN	0.421	0.318	0.67	0.281	1.18	0.998	1.12	1.03	0.289	0.254	0.324	0.296	0.742	0.537	0.78	0.767	0.666	0.772	0.78	0.846
NCI-H650	0.854	0.647	0.802	0.806	1.23	0.951	1.16	1.1	0.603	0.525	0.576	0.542	0.308	0.319	0.317	0.306	1.08	1.12	1.09	1.01
LCLC-103H	1.04	0.829	0.835	0.866	1.03	0.867	1.05	0.981	0.525	0.528	0.428	0.455	0.768	0.817	0.815	0.778	0.833	0.682	0.724	0.529
PC-14	0.119	0.137	0.146	0.287	0.975	0.892	0.965	0.847	1.07	0.831	0.853	0.72	0.343	0.199	0.198	0.241	1.02	0.927	0.954	0.946
COR-L23	0.776	0.7	0.781	0.642	1.02	0.672	0.704	0.708	0.964	0.783	0.806	0.64	0.474	0.414	0.412	0.397	0.978	0.881	1.01	0.902
NCI-H1915	0.913	0.682	0.8	0.718	1.08	1.04	1.04	1.04	0.659	0.604	0.698	0.585	0.243	0.266	0.272	0.266	1.15	1.01	1.18	1.07
